{
  "source": "patent US5843449A",
  "about": "“Proteins and novel peptides derived from autoantigen for use in immunotherapy of autoimmune diseases” (Akzo Nobel N.V., priority 1996, dated 1998)",
  "key": {"DR4Dw14 HLA-DR molecules": {"target": "DR4Dw14 HLA-DR molecules", "experiment": "HLA-DR peptide binding assay (competition with biotinylated marker peptide), DR4Dw14", "design": "species or system human", "details": "pH = 5, 50 nM biotin-spacer-IHA(307-319)F marker peptide"}, "PBMC from healthy donors": {"test_system": "PBMC from healthy donors", "experiment": "Proliferative responses of PBMC from healthy donors (3H-thymidine)", "type": "cell-based, human", "details": "10% autologous serum", "experimental": "PBMC's from healthy donors carrying the DR4Dw4 (DRB1*0401) or the DR1 specificity were collected as a control.\n(§1) PBMC obtained from heparinized venous peripheral blood were isolated by standard centrifugation on a Ficoll-Paque gradient. […] Cultures were incubated in a total volume of 210 μl for 7 days at 37° C. in a humidified atmosphere of 5% CO2. Cultures were pulsed during the last 18 hours with 0.25 μCi^3 H-thymidine."}, "[1]": {"target": "T1, DR4Dw4 (DRB1*0401) HLA-DR molecules (Homo sapiens, UniProt P01903+P01911, A100K/A169T/F76Y/I96L/K127E/L162R/M171V/N62H/P40V/Q125Y/R42H/S133A/S149N/S66Y/V115G/V209L/W38E)", "T1 construct": "endogenous in cells; host or cells: BSM, EBV-transformed B-cell line", "experiment": "HLA-DR peptide binding assay (competition with biotinylated marker peptide), DR4Dw4", "details": "pH = 5, 50 nM biotin-spacer-IHA(307-319)F marker peptide"}, "PBMC from RA patients": {"test_system": "PBMC from RA patients", "experiment": "Proliferative responses of PBMC from RA patients (3H-thymidine)", "type": "cell-based, human", "details": "10% autologous serum", "experimental": "Peripheral blood mononuclear cells (PBMC) from patients who were diagnosed as suffering from RA according to the American Rheumatism Association (ARA) criteria (Arnett et al., Arthritis Rheum. 31:315, 1988) were collected.\nas §1"}},
  "note": "Like-named read-outs stand apart in the source and are kept apart here. Residues, ends and D or L forms follow the SMILES beside them.",
  "data": [
    {"smiles": "CC(C)C[C@H](NC(=O)[C@@H](NC(=O)[C@H](Cc1ccccc1)NC(=O)[C@H](CO)NC(=O)[C@@H](N)CCCNC(=N)N)[C@@H](C)O)C(=O)N[C@@H](C)C(=O)N[C@@H](CO)C(=O)N[C@@H](CO)C(=O)N[C@@H](CCC(=O)O)C(=O)N[C@H](C(=O)NCC(=O)N[C@H](C(=O)NCC(=O)O)C(C)C)[C@@H](C)O", "note": "[Peptide 2] (H-RSFTLASSETGVG-OH)", "values": [
      {"measurement": "IC50", "setting": "DR4Dw14 HLA-DR molecules; DOT Blot, densitometer, read-out: ^R IC50, DR4Dw14, DOT Blot", "value": 190, "unit": "nM"},
      {"measurement": "IC50", "setting": "DR4Dw14 HLA-DR molecules; SDS-PAGE, visual inspection, read-out: ^R IC50, DR4Dw14, SDS-PAGE", "value": 200, "unit": "nM"},
      {"measurement": "Proliferative response, stimulation index (SI)", "setting": "PBMC from healthy donors; healthy donor 155-03 (NR), peptide 10 μg/ml", "value": 1},
      {"measurement": "Proliferative response, stimulation index (SI)", "setting": "PBMC from healthy donors; healthy donor 155-03 (NR), peptide 100 μg/ml", "value": 1},
      {"measurement": "Proliferative response, stimulation index (SI)", "setting": "PBMC from healthy donors; healthy donor 156-03 (NR), peptide 10 μg/ml", "value": 1},
      {"measurement": "Proliferative response, stimulation index (SI)", "setting": "PBMC from healthy donors; healthy donor 156-03 (NR), peptide 100 μg/ml", "value": "< 1"},
      {"measurement": "Proliferative response, stimulation index (SI)", "setting": "PBMC from healthy donors; healthy donor 157-03 (NR), peptide 10 μg/ml", "value": "< 2"},
      {"measurement": "Proliferative response, stimulation index (SI)", "setting": "PBMC from healthy donors; healthy donor 157-03 (NR), peptide 100 μg/ml", "value": "< 2"},
      {"measurement": "Proliferative response, stimulation index (SI)", "setting": "PBMC from healthy donors; healthy donor 157-04 (R), peptide 10 μg/ml", "value": 1},
      {"measurement": "Proliferative response, stimulation index (SI)", "setting": "PBMC from healthy donors; healthy donor 157-04 (R), peptide 100 μg/ml", "value": "< 1"},
      {"measurement": "Proliferative response, stimulation index (SI)", "setting": "PBMC from healthy donors; healthy donor 168-03 (NR), peptide 10 μg/ml", "value": "< 1"},
      {"measurement": "Proliferative response, stimulation index (SI)", "setting": "PBMC from healthy donors; healthy donor 168-03 (NR), peptide 100 μg/ml", "value": "< 1"},
      {"measurement": "Proliferative response, stimulation index (SI)", "setting": "PBMC from healthy donors; healthy donor 168.02 (NR), peptide 10 μg/ml", "value": "< 2"},
      {"measurement": "Proliferative response, stimulation index (SI)", "setting": "PBMC from healthy donors; healthy donor 168.02 (NR), peptide 100 μg/ml", "value": "< 1"},
      {"measurement": "Proliferative response, stimulation index (SI)", "setting": "PBMC from healthy donors; healthy donor 169-02 (NR), peptide 10 μg/ml", "value": 1},
      {"measurement": "Proliferative response, stimulation index (SI)", "setting": "PBMC from healthy donors; healthy donor 169-02 (NR), peptide 100 μg/ml", "value": 1},
      {"measurement": "Proliferative response, stimulation index (SI)", "setting": "PBMC from healthy donors; healthy donor 230-01 (NR), peptide 10 μg/ml", "value": 1},
      {"measurement": "Proliferative response, stimulation index (SI)", "setting": "PBMC from healthy donors; healthy donor 230-01 (NR), peptide 100 μg/ml", "value": 1},
      {"measurement": "Proliferative response, stimulation index (SI)", "setting": "PBMC from healthy donors; healthy donor 235-0 (NR), peptide 10 μg/ml", "value": 1},
      {"measurement": "Proliferative response, stimulation index (SI)", "setting": "PBMC from healthy donors; healthy donor 235-0 (NR), peptide 100 μg/ml", "value": "< 2"},
      {"measurement": "Proliferative response, stimulation index (SI)", "setting": "PBMC from healthy donors; healthy donor 235-01 (NR), peptide 10 μg/ml", "value": "< 1"},
      {"measurement": "Proliferative response, stimulation index (SI)", "setting": "PBMC from healthy donors; healthy donor 235-01 (NR), peptide 100 μg/ml", "value": "< 1"},
      {"measurement": "Proliferative response, stimulation index (SI)", "setting": "PBMC from healthy donors; healthy donor 236-01 (NR), peptide 10 μg/ml", "value": 1},
      {"measurement": "Proliferative response, stimulation index (SI)", "setting": "PBMC from healthy donors; healthy donor 236-01 (NR), peptide 100 μg/ml", "value": 1},
      {"measurement": "Proliferative response, stimulation index (SI)", "setting": "PBMC from healthy donors; healthy donor 237-0 (NR), peptide 10 μg/ml", "value": "< 2"},
      {"measurement": "Proliferative response, stimulation index (SI)", "setting": "PBMC from healthy donors; healthy donor 237-0 (NR), peptide 100 μg/ml", "value": "< 1"},
      {"measurement": "Proliferative response, stimulation index (SI)", "setting": "PBMC from healthy donors; healthy donor 237-01 (NR), peptide 10 μg/ml", "value": 1},
      {"measurement": "Proliferative response, stimulation index (SI)", "setting": "PBMC from healthy donors; healthy donor 237-01 (NR), peptide 100 μg/ml", "value": 1},
      {"measurement": "Proliferative response, stimulation index (SI)", "setting": "PBMC from healthy donors; healthy donor 238-01 (NR), first line so labelled, peptide 10 μg/ml", "value": 1},
      {"measurement": "Proliferative response, stimulation index (SI)", "setting": "PBMC from healthy donors; healthy donor 238-01 (NR), first line so labelled, peptide 100 μg/ml", "value": "< 1"},
      {"measurement": "Proliferative response, stimulation index (SI)", "setting": "PBMC from healthy donors; healthy donor 238-01 (NR), second line so labelled, peptide 10 μg/ml", "value": 1},
      {"measurement": "Proliferative response, stimulation index (SI)", "setting": "PBMC from healthy donors; healthy donor 238-01 (NR), second line so labelled, peptide 100 μg/ml", "value": 1},
      {"measurement": "Proliferative response, stimulation index (SI)", "setting": "PBMC from healthy donors; healthy donor 241-0 (NR), peptide 10 μg/ml", "value": 1},
      {"measurement": "Proliferative response, stimulation index (SI)", "setting": "PBMC from healthy donors; healthy donor 241-0 (NR), peptide 100 μg/ml", "value": "< 1"},
      {"measurement": "Proliferative response, stimulation index (SI)", "setting": "PBMC from healthy donors; healthy donor 241-01 (R), peptide 10 μg/ml", "value": "< 1"},
      {"measurement": "Proliferative response, stimulation index (SI)", "setting": "PBMC from healthy donors; healthy donor 241-01 (R), peptide 100 μg/ml", "value": "< 1"},
      {"measurement": "IC50", "setting": "[1]; DOT Blot, densitometer, read-out: ^R IC50, DR4Dw4, DOT Blot", "value": 80, "unit": "nM"},
      {"measurement": "IC50", "setting": "[1]; SDS-PAGE, visual inspection, read-out: ^R IC50, DR4Dw4, SDS-PAGE", "value": 40, "unit": "nM"},
      {"measurement": "Proliferative response, stimulation index (SI)", "setting": "PBMC from RA patients; RA patient 191-03 (HR), disease state IV, peptide 10 μg/l", "value": 1},
      {"measurement": "Proliferative response, stimulation index (SI)", "setting": "PBMC from RA patients; RA patient 191-03 (HR), disease state IV, peptide 100 μg/l", "value": "< 2"},
      {"measurement": "Proliferative response, stimulation index (SI)", "setting": "PBMC from RA patients; RA patient 215-0 (HR), disease state III-IV, peptide 25 μg/l", "value": 3},
      {"measurement": "Proliferative response, stimulation index (SI)", "setting": "PBMC from RA patients; RA patient 215-0 (HR), disease state III-IV, peptide 100 μg/l", "value": 19},
      {"measurement": "Proliferative response, stimulation index (SI)", "setting": "PBMC from RA patients; RA patient 240-0 (HR), disease state II-III, peptide 25 μg/l", "value": 5},
      {"measurement": "Proliferative response, stimulation index (SI)", "setting": "PBMC from RA patients; RA patient 240-0 (HR), disease state II-III, peptide 100 μg/l", "value": 6},
      {"measurement": "Proliferative response, stimulation index (SI)", "setting": "PBMC from RA patients; RA patient 242-0 (HR), disease state I, peptide 25 μg/l", "value": 4},
      {"measurement": "Proliferative response, stimulation index (SI)", "setting": "PBMC from RA patients; RA patient 243-0 (R), disease state III, peptide 10 μg/l", "value": 1},
      {"measurement": "Proliferative response, stimulation index (SI)", "setting": "PBMC from RA patients; RA patient 243-0 (R), disease state III, peptide 100 μg/l", "value": 6},
      {"measurement": "Proliferative response, stimulation index (SI)", "setting": "PBMC from RA patients; RA patient 247-0 (R), disease state III, peptide 10 μg/l", "value": 1},
      {"measurement": "Proliferative response, stimulation index (SI)", "setting": "PBMC from RA patients; RA patient 247-0 (R), disease state III, peptide 100 μg/l", "value": 2},
      {"measurement": "Proliferative response, stimulation index (SI)", "setting": "PBMC from RA patients; RA patient 248-0 (R), disease state III, peptide 10 μg/l", "value": 1},
      {"measurement": "Proliferative response, stimulation index (SI)", "setting": "PBMC from RA patients; RA patient 248-0 (R), disease state III, peptide 100 μg/l", "value": 1},
      {"measurement": "Proliferative response, stimulation index (SI)", "setting": "PBMC from RA patients; RA patient 272-0 (HR), disease state III-IV, peptide 10 μg/l", "value": "< 1"},
      {"measurement": "Proliferative response, stimulation index (SI)", "setting": "PBMC from RA patients; RA patient 272-0 (HR), disease state III-IV, peptide 100 μg/l", "value": "< 1"},
      {"measurement": "Proliferative response, stimulation index (SI)", "setting": "PBMC from RA patients; RA patient 273-0 (HR), disease state IV, peptide 10 μg/l", "value": 7},
      {"measurement": "Proliferative response, stimulation index (SI)", "setting": "PBMC from RA patients; RA patient 273-0 (HR), disease state IV, peptide 100 μg/l", "value": 6},
      {"measurement": "Proliferative response, stimulation index (SI)", "setting": "PBMC from RA patients; RA patient 275-0 (HR), disease state III, peptide 10 μg/l", "value": 2},
      {"measurement": "Proliferative response, stimulation index (SI)", "setting": "PBMC from RA patients; RA patient 275-0 (HR), disease state III, peptide 100 μg/l", "value": 9},
      {"measurement": "Proliferative response, stimulation index (SI)", "setting": "PBMC from RA patients; RA patient 276-0 (HR), disease state IV, burnt out, peptide 10 μg/l", "value": 3},
      {"measurement": "Proliferative response, stimulation index (SI)", "setting": "PBMC from RA patients; RA patient 276-0 (HR), disease state IV, burnt out, peptide 100 μg/l", "value": 1},
      {"measurement": "Proliferative response, stimulation index (SI)", "setting": "PBMC from RA patients; RA patient 280-0 (HR), disease state IV, burnt out, peptide 10 μg/l", "value": 1},
      {"measurement": "Proliferative response, stimulation index (SI)", "setting": "PBMC from RA patients; RA patient 280-0 (HR), disease state IV, burnt out, peptide 100 μg/l", "value": 4}
    ]}
  ]
}
